Reference: patent publication US20220088100A1, “COSMETIC, PHARMACEUTICAL AND NUTRACEUTICAL USE OF AN EXTRACT DERIVED FROM CANNABISSATIVA CELL CULTURES” (ARTERRA BIOSCIENCE S.P.A., priority 2018, published 2022)
Where a name gives a salt, the structure may show the parent alone.

System: histamine production in RAW 264.7 cells (macrophages)
Test: Histamine content in macrophages stressed with CGRP
Assay type: cell-based
Settings: RAW 264.7, 50 μg/ml 2 h, then 10 nM CGRP 16 h; reduction compared with that of the extract
Method: To determine whether the plant cell culture extract according to the invention was able to reduce the production of histamine induced by the CGRP peptide in the immune system cells, an assay was conducted for the quantization of the histamine content in macrophages subjected to a stress condition by the CGRP neuropeptide.
RAW 264.7 cells were seeded in 96-well plates in an initial number of 5×10^4, and after 16 h, they were treated with different doses of the extract or with the anti-histamine compound cetirizine dihydrochloride (50 μg/ml), used as a positive control of the experiment. After 2 h of treatment with the extract or with cetirizine, the production of histamine was induced by the treatment with 10 nM of CGRP and, after 16 h, the amount of histamine was measured by adding 100 μl of methanol containing 0.4 M NaOH and 1 mg/ml of o-Phthaldialdehyde (OPT). After 10 minutes of incubation at room temperature, 50 μl of 0.1M HCl was added to each well to stop the reaction. Fluorescence was measured at 443 nm using a 360 nm excitation wavelength from the multi-plate reader, Victor3 (Perkin Elmer). The histamine content was calculated as a percentage of the value of the control cells stressed with 10 nM CGRP, arbitrarily set as 100%.

O=C(O)COCCN1CCN(C(c2ccccc2)c2ccc(Cl)cc2)CC1 (stereo not shown) [cetirizine, cetirizine dihydrochloride]
production of histamine in macrophages, positive control: similarly
